Results reported in patent US20070197590A1, “SUBSTITUTED DIPIPERIDINE CCR2 ANTAGONISTS” (priority 2006, published 2007).
Like-named read-outs stand apart in the source and are kept apart here.

Tests used:
[1] = tested on: MCP-1 induced calcium ion influx in THP-1 cells; test: MCP-1 Induced Calcium Mobilization in THP-1 Cells; format: cell-based; details: for IC50: 0.2 μM MCP-1, FLIPR, read-out: Inhibition of MCP-1 Induced Calcium Ion Influx IC50; for inhibition at 25 µM: THP-1, test concentration of 25 μM, given where an IC50 value was not obtained, read-out: Inhibition of MCP-1 Induced Calcium Ion Influx, percent inhibition
Method: THP-1 cells were plated at a density of 8×10^5 cells/mL (100 μL/well) into poly-D lysine coated clear bottom, black 96 well plates. The cells were loaded with 5 μM fluo-3 for 45 minutes. The fluo-3 washed off and cells were incubated with varying concentrations of test compound for 15 minutes. The change in calcium ion concentration upon addition of 0.2 μM MCP-1 was determined using FLIPR and compared to vehicle.
Table 2 lists IC50 values for inhibition of MCP-1 induced influx of calcium ions.

CCR2 = molecular target: T1, CCR2 (Homo sapiens, UniProt P41597); test: MCP-1 Receptor Binding Assay in THP-1 Cells; details: for IC50: THP-1 cells, 0.5 nM 125I labeled MCP-1, 2 hours at 30° C., read-out: Inhibition of MCP-1 Binding IC50; for inhibition at 25 µM: test concentration of 25 μM, given where an IC50 value was not obtained, read-out: Inhibition of MCP-1 Binding, percent inhibition
T1 construct: host or cells: THP-1 cells
T1 sequence (P41597 1-360 isoform P41597-2): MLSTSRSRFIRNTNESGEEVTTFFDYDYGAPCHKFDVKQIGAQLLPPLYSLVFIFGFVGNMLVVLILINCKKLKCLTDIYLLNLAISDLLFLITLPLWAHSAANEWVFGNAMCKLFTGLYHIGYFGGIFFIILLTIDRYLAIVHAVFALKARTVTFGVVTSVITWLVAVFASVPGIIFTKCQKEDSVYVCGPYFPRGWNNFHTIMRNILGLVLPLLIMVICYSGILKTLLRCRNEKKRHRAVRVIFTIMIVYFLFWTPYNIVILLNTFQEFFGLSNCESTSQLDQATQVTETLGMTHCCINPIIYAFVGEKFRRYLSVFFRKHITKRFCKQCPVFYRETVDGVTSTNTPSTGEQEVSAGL
In short: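 Whole THP-1 cells incubated 2 h at 30° C with 0.5 nM 125I-MCP-1 and varying compound concentrations; bound radioactivity harvested on filters and counted by scintillation. Nonspecific binding with 1 μM cold MCP-1; IC50 for inhibition of binding versus vehicle.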

[2] = Homo sapiens, THP-1, THP-1 cells

IC50 [1, 2]	IC50 (CCR2)	IC50 ([1]; THP-1 cells)	inhibition at 25 µM (CCR2)	Compound	inhibition at 25 µM ([1]; Homo sapiens)
1500 nM	730 nM			O=C(/C=C/c1ccc(F)c(Br)c1)N1CCC(O)(C(O)CN2CCC(c3c[nH]c4ccc(F)cc34)CC2)CC1 (stereo not shown) [Compound 159]	
5400 nM	790 nM			O=C(/C=C/c1ccc(Cl)c(Cl)c1)N1CCC(O)(C(O)CN2CCC(c3c[nH]c4ccc(N5CCOCC5)cc34)CC2)CC1 (stereo not shown) [Compound 169]	
17200 nM	4400 nM			O=C(/C=C/c1ccc(Cl)cc1)N1CCC(O)(C(O)CN2CCC(c3c[nH]c4ccc(N5CCOCC5)cc34)CC2)CC1 (stereo not shown) [Compound 170]	
	12800 nM			O=C(/C=C/c1ccc(F)cc1)N1CCC(O)(C(O)CN2CCC(c3c[nH]c4ccc(N5CCOCC5)cc34)CC2)CC1 (stereo not shown) [Compound 171]	22%
	3700 nM			O=C(/C=C/c1ccc(F)c(F)c1)N1CCC(O)(C(O)CN2CCC(c3c[nH]c4ccc(N5CCOCC5)cc34)CC2)CC1 (stereo not shown) [Compound 172]	46%
1200 nM	910 nM			O=C(/C=C/c1ccc(F)c(Br)c1)N1CCC(O)(C(O)CN2CCC(c3c[nH]c4ccc(N5CCOCC5)cc34)CC2)CC1 (stereo not shown) [Compound 173]	
	3200 nM			Cc1cccc(/C=C/C(=O)N2CCC(O)(C(O)CN3CCC(c4c[nH]c5ccc(N6CCOCC6)cc45)CC3)CC2)c1 (stereo not shown) [Compound 174]	44%
			70%	O=C(/C=C/c1cc(F)c(F)cc1F)N1CCC(O)(C(O)CN2CCC(c3c[nH]c4ccc(N5CCOCC5)cc34)CC2)CC1 (stereo not shown) [Compound 175]	24%
			53%	COc1cccc(/C=C/C(=O)N2CCC(O)(C(O)CN3CCC(c4c[nH]c5ccc(N6CCOCC6)cc45)CC3)CC2)c1 (stereo not shown) [Compound 177]	27%
			59%	O=C(/C=C/c1ccsc1)N1CCC(O)(C(O)CN2CCC(c3c[nH]c4ccc(N5CCOCC5)cc34)CC2)CC1 (stereo not shown) [Compound 178]	2%

The next lines start with the compound.

Compound	IC50 [1, 2]	IC50 (CCR2)	IC50 ([1]; THP-1 cells)	inhibition at 25 µM (CCR2)	inhibition at 25 µM ([1]; Homo sapiens)
COc1ccc(C2CCN(CC(O)C3CCN(C(=S)Nc4ccc(C(F)(F)F)cc4)CC3)CC2)cc1 (stereo not shown) [Compound 106, 4-{1-hydroxy-2-[4-(4-methoxy-phenyl)-piperidin-1-yl]-ethyl}-piperidine-1-carbothioic acid (4-trifluoromethyl-phenyl)-amide]	2600 nM	760 nM			
COc1ccc(C2CCN(CC(O)C3CCN(C(=S)Nc4ccc(Cl)c(Cl)c4)CC3)CC2)cc1 (stereo not shown) [Compound 108, 4-{1-hydroxy-2-[4-(4-methoxy-phenyl)-piperidin-1-yl]-ethyl}-piperidine-1-carbothioic acid (3,4-dichloro-phenyl)-amide]		210 nM	480 nM		
COc1ccc(C2CCN(CC(O)C3(O)CCN(C(=O)/C=C/c4ccsc4)CC3)CC2)cc1 (stereo not shown) [Compound 113]	4900 nM	1600 nM			
COc1ccc(C2CCN(CC(O)C3(O)CCN(C(=O)Nc4ccc(F)c(F)c4)CC3)CC2)cc1 (stereo not shown) [Compound 114, 4-hydroxy-4-{1-hydroxy-2-[4-(4-methoxy-phenyl)-piperidin-1-yl]-ethyl}-piperidine-1-carboxylic acid (3,4-difluoro-phenyl)-amide]		1100 nM			55%
COc1ccc(C2CCN(CC(O)C3(O)CCN(C(=O)Nc4cc(F)cc(F)c4)CC3)CC2)cc1 (stereo not shown) [Compound 115, 4-hydroxy-4-{1-hydroxy-2-[4-(4-methoxy-phenyl)-piperidin-1-yl]-ethyl}-piperidine-1-carboxylic acid (3,5-difluoro-phenyl)-amide]		910 nM			57%
COc1ccc(C2CCN(CC(O)C3(O)CCN(C(=O)Nc4ccc(Cl)c(Cl)c4)CC3)CC2)cc1 (stereo not shown) [Compound 116, 4-hydroxy-4-{1-hydroxy-2-[4-(4-methoxy-phenyl)-piperidin-1-yl]-ethyl}-piperidine-1-carboxylic acid (3,4-dichloro-phenyl)-amide]	840 nM	530 nM			
COc1ccc(C2CCN(CC(O)C3(O)CCN(C(=S)Nc4ccc(Cl)c(Cl)c4)CC3)CC2)cc1 (stereo not shown) [Compound 117, 4-hydroxy-4-{1-hydroxy-2-[4-(4-methoxy-phenyl)-piperidin-1-yl]-ethyl}-piperidine-1-carbothioic acid (3,4-dichloro-phenyl)-amide]	1200 nM	1300 nM			
COc1ccc(C2CCN(CC(O)C3(O)CCN(C(=S)Nc4cc(Cl)cc(Cl)c4)CC3)CC2)cc1 (stereo not shown) [Compound 118, 4-hydroxy-4-{1-hydroxy-2-[4-(4-methoxy-phenyl)-piperidin-1-yl]-ethyl}-piperidine-1-carbothioic acid (3,5-dichloro-phenyl)-amide]	3100 nM	1300 nM			
OC(CN1CCC(c2c[nH]c3ccccc23)CC1)C1(O)CCN(c2nccc(C(F)(F)F)n2)CC1 (stereo not shown) [Compound 120, 4-{1-hydroxy-2-[4-(1H-indol-3-yl)-piperidin-1-yl]-ethyl}-1-(4-trifluoromethyl-pyrimidin-2-yl)-piperidin-4-ol]		1900 nM			13%
OC(CN1CCC(c2nc3ccccc3[nH]2)CC1)C1(O)CCN(c2nccc(C(F)(F)F)n2)CC1 (stereo not shown) [Compound 121, 4-{2-[4-(1H-benzoimidazol-2-yl)-piperidin-1-yl]-1-hydroxy-ethyl}-1-(4-trifluoromethyl-pyrimidin-2-yl)-piperidin-4-ol]				50%	65%
Cc1ccc2[nH]cc(C3CCN(CC(O)C4(O)CCN(c5nccc(C(F)(F)F)n5)CC4)CC3)c2c1 (stereo not shown) [Compound 123, 4-{1-hydroxy-2-[4-(5-methyl-1H-indol-3-yl)-piperidin-1-yl]-ethyl}-1-(4-trifluoromethyl-pyrimidin-2-yl)-piperidin-4-ol]		9400 nM			68%
N#Cc1ccc2[nH]cc(C3CCN(CC(O)C4(O)CCN(c5nccc(C(F)(F)F)n5)CC4)CC3)c2c1 (stereo not shown) [Compound 124, 3-(1-{2-hydroxy-2-[4-hydroxy-1-(4-trifluoromethyl-pyrimidin-2-yl)-piperidin-4-yl]-ethyl}-piperidin-4-yl)-1H-indole-5-carbonitrile]		8300 nM			43%
O=C(/C=C/c1ccc(F)c(F)c1)N1CCC(O)(C(O)CN2CCC(c3ccc(F)cc3)CC2)CC1 (stereo not shown) [Compound 129]	8000 nM	500 nM			
O=C(/C=C/c1ccc(Cl)c(Cl)c1)N1CCC(O)(C(O)CN2CCC(c3ccc(F)cc3)CC2)CC1 (stereo not shown) [Compound 131]	380 nM	180 nM			
O=C(Nc1ccc(F)c(F)c1)N1CCC(O)(C(O)CN2CCC(c3ccc(F)cc3)CC2)CC1 (stereo not shown) [Compound 132, 4-{2-[4-(4-fluoro-phenyl)-piperidin-1-yl]-1-hydroxy-ethyl}-4-hydroxy-piperidine-1-carboxylic acid (3,4-difluoro-phenyl)-amide]		2400 nM			26%
O=C(Nc1ccc(Cl)c(Cl)c1)N1CCC(O)(C(O)CN2CCC(c3ccc(F)cc3)CC2)CC1 (stereo not shown) [Compound 134, 4-{2-[4-(4-fluoro-phenyl)-piperidin-1-yl]-1-hydroxy-ethyl}-4-hydroxy-piperidine-1-carboxylic acid (3,4-dichloro-phenyl)-amide]		1900 nM			52%
OC(CN1CCC(c2ccc(F)cc2)CC1)C1(O)CCN(C(=S)Nc2ccc(Cl)c(Cl)c2)CC1 (stereo not shown) [Compound 135, 4-{2-[4-(4-fluoro-phenyl)-piperidin-1-yl]-1-hydroxy-ethyl}-4-hydroxy-piperidine-1-carbothioic acid (3,4-dichloro-phenyl)-amide]	9200 nM	730 nM			
O=C(/C=C/c1ccc(Cl)c(Cl)c1)N1CCC(O)(C(O)CN2CCC(c3ccc(C(F)(F)F)cc3)CC2)CC1 (stereo not shown) [Compound 139]	310 nM	920 nM			
O=C(/C=C/c1cc(F)c(F)c(F)c1)N1CCC(O)(C(O)CN2CCC(O)(c3ccc(F)cc3)CC2)CC1 (stereo not shown) [Compound 152]		3100 nM			43%
O=C(/C=C/c1ccc(F)c(F)c1)N1CCC(O)(C(O)CN2CCC(O)(c3ccc(F)cc3)CC2)CC1 (stereo not shown) [Compound 153]		730 nM			12%
O=C(/C=C/c1ccc(Cl)c(Cl)c1)N1CCC(O)(C(O)CN2CCC(c3c[nH]c4ccc(F)cc34)CC2)CC1 (stereo not shown) [Compound 158]	2100 nM	350 nM			
O=C(CCc1ccc(Cl)cc1)N1CCC(O)(C(O)CN2CCC(c3c[nH]c4ccc(F)cc34)CC2)CC1 (stereo not shown) [Compound 160, 3-(4-chloro-phenyl)-1-(4-{2-[4-(5-fluoro-1H-indol-3-yl)-piperidin-1-yl]-1-hydroxy-ethyl}-4-hydroxy-piperidine-1-yl)-propan-1-one]	3600 nM	840 nM			
